The target in series [1] is T1, NAD-dependent protein deacetylase sirtuin-3, mitochondrial (Homo sapiens, UniProt Q9NTG7).
T1 sequence (Q9NTG7 whole entry): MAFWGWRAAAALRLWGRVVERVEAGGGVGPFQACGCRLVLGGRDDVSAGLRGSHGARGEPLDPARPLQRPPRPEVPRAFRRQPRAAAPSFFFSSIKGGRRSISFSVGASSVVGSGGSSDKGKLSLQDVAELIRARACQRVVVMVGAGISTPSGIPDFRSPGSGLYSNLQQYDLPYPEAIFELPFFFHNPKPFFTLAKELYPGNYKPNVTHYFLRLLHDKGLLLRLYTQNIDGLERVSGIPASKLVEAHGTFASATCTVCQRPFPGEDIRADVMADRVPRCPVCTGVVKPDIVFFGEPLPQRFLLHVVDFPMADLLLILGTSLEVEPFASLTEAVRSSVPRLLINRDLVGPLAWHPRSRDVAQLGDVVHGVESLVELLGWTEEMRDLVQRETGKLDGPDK
The series is described as follows: Inhibitory activity against recombinant human SIRT3 expressed in Escherichia coli by fluorimetric assay.

In the next series the target is Histone deacetylase. Nature of the series: Inhibitory activity against human HDAC in HeLa cell extract by fluorimetric assay. It is filed as cell-free.
The target of the next series is T2, CYP1A2 (Homo sapiens, UniProt P05177).
T2 sequence (P05177 whole entry): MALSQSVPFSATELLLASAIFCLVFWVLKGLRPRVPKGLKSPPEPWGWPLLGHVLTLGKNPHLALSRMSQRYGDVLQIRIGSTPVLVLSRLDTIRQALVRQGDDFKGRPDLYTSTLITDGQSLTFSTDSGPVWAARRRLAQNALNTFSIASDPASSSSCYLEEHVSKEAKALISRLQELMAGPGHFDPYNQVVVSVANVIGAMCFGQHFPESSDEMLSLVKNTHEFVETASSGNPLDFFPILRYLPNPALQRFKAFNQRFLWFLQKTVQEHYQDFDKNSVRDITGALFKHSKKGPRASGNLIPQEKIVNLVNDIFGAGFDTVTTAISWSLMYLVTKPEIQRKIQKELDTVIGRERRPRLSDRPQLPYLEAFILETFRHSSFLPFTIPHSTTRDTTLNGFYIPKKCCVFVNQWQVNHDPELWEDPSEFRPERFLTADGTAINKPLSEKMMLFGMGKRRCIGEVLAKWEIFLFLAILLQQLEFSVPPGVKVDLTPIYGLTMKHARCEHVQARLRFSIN
The series is described as follows: Percent inhibitory activity against human CYP1A2 at 1uM. It counts as ADME.

In another series the target is CYP2C9 (Homo sapiens, UniProt P11712). The series is described as follows: Percent inhibitory activity against human CYP2C9 at 1uM. It is filed as ADME.
The next series concerns the target CYP3A4 (Homo sapiens, UniProt P08684). The series is described as follows: Percent inhibitory activity against human CYP3A4 at 1uM. It counts as ADME.
In a further series the target is CYP2D6 (Homo sapiens, UniProt P10635). Nature of the series: Percent inhibitory activity against human CYP2D6 at 1uM. It is filed as ADME.
The target in the next series is CYP2C19 (Homo sapiens, UniProt P33261). The series is described as follows: Percent inhibitory activity against human CYP2C19 at 1uM. It is filed as ADME.
Series [2] addresses T3, NAD-dependent protein deacetylase sirtuin-2 (Homo sapiens, UniProt Q8IXJ6).
T3 sequence (Q8IXJ6 whole entry): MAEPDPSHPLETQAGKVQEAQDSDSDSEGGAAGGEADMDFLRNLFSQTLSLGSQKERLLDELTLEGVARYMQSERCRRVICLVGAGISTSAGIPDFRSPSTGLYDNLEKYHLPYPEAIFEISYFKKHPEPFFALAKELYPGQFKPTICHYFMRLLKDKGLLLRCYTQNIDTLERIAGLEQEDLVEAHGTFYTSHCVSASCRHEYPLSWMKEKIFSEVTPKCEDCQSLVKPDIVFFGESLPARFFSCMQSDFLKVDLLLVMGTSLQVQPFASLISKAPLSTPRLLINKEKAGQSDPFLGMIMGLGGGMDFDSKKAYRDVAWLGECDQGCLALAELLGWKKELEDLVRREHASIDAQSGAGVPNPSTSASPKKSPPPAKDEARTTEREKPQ
Description: Inhibitory activity against recombinant human SIRT2 expressed in Escherichia coli by fluorimetric assay

In series [3] the target is hERG (KCNH2) potassium channel (Homo sapiens, UniProt Q12809). The series is described as follows: Percentage inhibitory activity against hERG potassium channel transfected in CHO cells at 10uM. The following applies: CHO cells transfected with hERG. (In general: The hERG channel carries a current that helps repolarise heart muscle cells.)
The target of series [4] is T4, NAD-dependent protein deacetylase sirtuin-1 (Homo sapiens, UniProt Q96EB6).
T4 sequence (Q96EB6 whole entry): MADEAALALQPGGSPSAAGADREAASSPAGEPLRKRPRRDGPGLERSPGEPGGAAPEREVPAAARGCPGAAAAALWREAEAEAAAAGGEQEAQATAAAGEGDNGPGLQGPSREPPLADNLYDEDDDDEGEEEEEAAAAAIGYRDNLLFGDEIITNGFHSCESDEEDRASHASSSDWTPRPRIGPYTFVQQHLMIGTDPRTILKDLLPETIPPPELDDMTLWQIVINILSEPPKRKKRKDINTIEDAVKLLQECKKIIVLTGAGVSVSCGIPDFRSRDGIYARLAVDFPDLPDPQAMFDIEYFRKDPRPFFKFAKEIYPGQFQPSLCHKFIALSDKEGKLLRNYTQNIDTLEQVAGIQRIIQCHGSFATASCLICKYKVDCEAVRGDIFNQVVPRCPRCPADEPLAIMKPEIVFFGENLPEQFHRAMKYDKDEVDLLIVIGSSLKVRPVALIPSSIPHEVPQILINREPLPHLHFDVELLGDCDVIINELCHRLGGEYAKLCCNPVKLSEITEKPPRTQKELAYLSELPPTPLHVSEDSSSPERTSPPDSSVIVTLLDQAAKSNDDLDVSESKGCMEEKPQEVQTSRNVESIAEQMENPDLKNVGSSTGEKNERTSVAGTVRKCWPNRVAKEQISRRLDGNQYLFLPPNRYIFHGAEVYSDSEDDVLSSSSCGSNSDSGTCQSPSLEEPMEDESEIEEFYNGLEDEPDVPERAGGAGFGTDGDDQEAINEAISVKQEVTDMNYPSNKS
Description: Inhibitory activity against recombinant human SIRT1 expressed in Escherichia coli by fluorimetric assay

The target of series [5] is T4, NAD-dependent protein deacetylase sirtuin-1. The source holds these as a separate data set.
Description: Inhibitory activity against human SIRT1 by radiochemical Nicotinamide release assay
In the next series the test system is Liver microsomes. Nature of the series: Stability in rat liver microsomes at 10 uM. It counts as ADME, Microsome.
The nature of series [6]: Serum half life in mice administered with 10 mg/kg, po. It counts as ADME, organism-based. Also noted: dose 10 mg/kg, route oral. As to conditions: C57bl/6J, mouse.
Series [7] in a line: Half life in rat liver microsomes. It counts as ADME, Microsome. (Microsomes from liver hold many membrane-bound enzymes, among them those of drug oxidation.)

Structures are written as SMILES. Where only a bound is given, the exact number is not on record here.

Here are results for 21 compounds from ChEMBL document CHEMBL1140425, “Discovery of indoles as potent and selective inhibitors of the deacetylase SIRT1” (J Med Chem, 2005).

Sequence of hERG (KCNH2) potassium channel (Q12809 whole entry): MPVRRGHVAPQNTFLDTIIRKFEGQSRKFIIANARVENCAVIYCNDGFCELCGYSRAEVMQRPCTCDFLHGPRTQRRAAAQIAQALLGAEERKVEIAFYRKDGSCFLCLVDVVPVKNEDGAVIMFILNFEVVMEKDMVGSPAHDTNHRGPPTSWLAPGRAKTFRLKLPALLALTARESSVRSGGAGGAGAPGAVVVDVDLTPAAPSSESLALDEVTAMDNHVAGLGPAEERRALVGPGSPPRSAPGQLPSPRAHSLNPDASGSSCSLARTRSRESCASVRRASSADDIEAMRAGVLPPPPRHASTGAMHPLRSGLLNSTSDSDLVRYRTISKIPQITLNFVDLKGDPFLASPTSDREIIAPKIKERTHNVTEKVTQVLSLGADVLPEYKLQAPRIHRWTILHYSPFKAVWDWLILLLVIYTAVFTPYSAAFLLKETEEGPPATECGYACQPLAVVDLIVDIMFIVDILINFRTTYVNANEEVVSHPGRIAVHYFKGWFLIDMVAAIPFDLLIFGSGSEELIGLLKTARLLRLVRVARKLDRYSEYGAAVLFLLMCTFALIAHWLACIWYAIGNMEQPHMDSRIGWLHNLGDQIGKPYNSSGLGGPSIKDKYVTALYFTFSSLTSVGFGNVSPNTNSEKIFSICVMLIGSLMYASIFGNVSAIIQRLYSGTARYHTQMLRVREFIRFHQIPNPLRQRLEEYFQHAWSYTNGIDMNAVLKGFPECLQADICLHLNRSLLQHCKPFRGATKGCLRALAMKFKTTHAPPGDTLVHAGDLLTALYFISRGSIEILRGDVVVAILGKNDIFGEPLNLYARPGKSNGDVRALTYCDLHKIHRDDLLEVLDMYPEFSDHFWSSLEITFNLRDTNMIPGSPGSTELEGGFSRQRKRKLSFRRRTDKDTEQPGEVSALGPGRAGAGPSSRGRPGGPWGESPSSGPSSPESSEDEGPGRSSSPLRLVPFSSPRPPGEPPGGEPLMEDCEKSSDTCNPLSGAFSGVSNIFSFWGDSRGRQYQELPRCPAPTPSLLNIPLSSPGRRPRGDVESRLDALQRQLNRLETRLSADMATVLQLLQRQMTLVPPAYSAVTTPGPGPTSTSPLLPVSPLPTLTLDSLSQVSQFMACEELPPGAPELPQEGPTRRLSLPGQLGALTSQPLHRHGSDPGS
Sequence of CYP2C19 (P33261 whole entry): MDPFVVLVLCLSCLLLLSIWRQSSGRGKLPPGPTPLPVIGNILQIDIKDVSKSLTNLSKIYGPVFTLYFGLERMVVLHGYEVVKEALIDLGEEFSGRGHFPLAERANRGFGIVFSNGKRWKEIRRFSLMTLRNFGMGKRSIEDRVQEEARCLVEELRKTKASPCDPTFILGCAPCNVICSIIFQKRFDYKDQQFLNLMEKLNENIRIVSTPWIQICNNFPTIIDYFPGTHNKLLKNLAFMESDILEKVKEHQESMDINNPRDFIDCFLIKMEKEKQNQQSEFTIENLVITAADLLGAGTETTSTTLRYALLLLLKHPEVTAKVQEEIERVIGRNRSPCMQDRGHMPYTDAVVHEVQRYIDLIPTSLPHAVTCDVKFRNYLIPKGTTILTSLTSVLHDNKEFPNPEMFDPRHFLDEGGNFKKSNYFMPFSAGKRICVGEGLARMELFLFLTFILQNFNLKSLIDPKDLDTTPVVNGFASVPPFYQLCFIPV
Sequence of CYP3A4 (P08684 whole entry): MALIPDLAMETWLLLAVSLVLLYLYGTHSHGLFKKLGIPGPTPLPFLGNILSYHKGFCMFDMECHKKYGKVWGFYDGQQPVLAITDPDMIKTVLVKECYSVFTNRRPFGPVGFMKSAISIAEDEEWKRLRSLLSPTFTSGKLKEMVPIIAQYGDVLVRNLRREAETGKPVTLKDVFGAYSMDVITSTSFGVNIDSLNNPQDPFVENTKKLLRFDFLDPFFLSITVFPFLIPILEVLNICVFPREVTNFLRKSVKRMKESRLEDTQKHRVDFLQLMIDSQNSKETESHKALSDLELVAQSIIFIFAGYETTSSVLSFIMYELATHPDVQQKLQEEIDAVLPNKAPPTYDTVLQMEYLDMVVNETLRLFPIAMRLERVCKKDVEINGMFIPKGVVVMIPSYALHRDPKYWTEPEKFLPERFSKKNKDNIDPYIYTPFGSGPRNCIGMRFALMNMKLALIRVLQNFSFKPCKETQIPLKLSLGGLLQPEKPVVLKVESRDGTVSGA
Sequence of CYP2D6 (P10635 whole entry): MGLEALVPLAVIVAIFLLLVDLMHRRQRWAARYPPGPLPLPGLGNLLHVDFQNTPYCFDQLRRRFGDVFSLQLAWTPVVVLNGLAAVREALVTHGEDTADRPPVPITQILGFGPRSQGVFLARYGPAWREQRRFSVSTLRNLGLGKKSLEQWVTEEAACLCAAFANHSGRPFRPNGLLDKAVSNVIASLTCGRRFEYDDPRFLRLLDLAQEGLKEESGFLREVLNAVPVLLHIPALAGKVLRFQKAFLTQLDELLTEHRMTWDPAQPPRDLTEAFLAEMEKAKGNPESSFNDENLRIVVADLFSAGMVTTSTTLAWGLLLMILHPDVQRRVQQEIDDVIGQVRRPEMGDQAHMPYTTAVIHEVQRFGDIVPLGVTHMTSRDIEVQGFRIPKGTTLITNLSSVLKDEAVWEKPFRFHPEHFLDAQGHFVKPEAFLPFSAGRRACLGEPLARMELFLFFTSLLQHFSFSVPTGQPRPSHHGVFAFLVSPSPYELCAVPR
Sequence of CYP2C9 (P11712 whole entry): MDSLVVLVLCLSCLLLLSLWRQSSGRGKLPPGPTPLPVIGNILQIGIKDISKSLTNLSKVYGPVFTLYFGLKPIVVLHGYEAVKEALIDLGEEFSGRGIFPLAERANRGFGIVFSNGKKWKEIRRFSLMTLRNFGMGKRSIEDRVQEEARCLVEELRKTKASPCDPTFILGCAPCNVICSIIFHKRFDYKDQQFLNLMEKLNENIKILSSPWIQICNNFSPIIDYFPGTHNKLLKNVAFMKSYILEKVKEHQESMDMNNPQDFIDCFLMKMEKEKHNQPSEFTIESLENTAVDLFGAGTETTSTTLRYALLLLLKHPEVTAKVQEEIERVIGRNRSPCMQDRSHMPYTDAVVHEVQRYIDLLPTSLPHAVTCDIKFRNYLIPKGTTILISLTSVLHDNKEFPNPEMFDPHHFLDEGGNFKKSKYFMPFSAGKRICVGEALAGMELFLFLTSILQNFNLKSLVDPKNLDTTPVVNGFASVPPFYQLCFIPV

Broadly, the IC50 is the concentration that gives 50% inhibition. By inhibition is commonly meant the drop in the measured response relative to a control, in per cent. Consider `NC(=O)C1CCCc2c1[nH]c1ccccc21` (configuration not stated), for which the concentration for half-maximal inhibition (IC50) in series [1] is greater than 100 µM; against Histone deacetylase, greater than 100 µM; in series [2], 24.8 µM. For the same compound, the inhibition at 1 µM against CYP1A2 is 4%; at CYP2C9, -8%; on CYP3A4, -22%; against CYP2D6 it was -4%; against CYP2C19 it was 5%. Further, the inhibition at 10 µM in [3] amounted to 0%.

For the compound `Cc1ccc2[nH]c3c(c2c1)CCCC3C(N)=O` (configuration not stated), the IC50 in [1] was greater than 100 µM; against Histone deacetylase it was greater than 100 µM; in series [4], 0.205 µM; in [5], 2500 nM; in series [2] it was 11.5 µM. Besides, the inhibition at 1 µM on CYP1A2 was 7%; against CYP2C9, -9%; against CYP3A4, -16%; against CYP2D6 it was -3%; on CYP2C19, 9%. Also, the inhibition at 10 µM in series [3] stood at 0%.

The compound `CCOC(=O)C1CCCc2c1[nH]c1ccc(Cl)cc21` (configuration not stated) came in with a half-maximal inhibitory concentration (IC50) in [4] greater than 100 µM.

`NC(=O)CNC(=O)C1CCCc2c1[nH]c1ccc(Cl)cc21` (configuration not stated) displayed a 50% inhibitory concentration (IC50) in series [4] greater than 100 µM.

As to `O=C(O)C1CCCc2c1[nH]c1ccc(Cl)cc21` (configuration not stated), in series [4], the concentration for half-maximal inhibition (IC50) was greater than 100 µM.

`O=C(NO)C1CCCc2c1[nH]c1ccc(Cl)cc21` (configuration not stated) showed a half-maximal inhibitory concentration (IC50) in series [4] of 77.6 µM.

For the compound `NC(=O)C1CCc2c([nH]c3ccc(Cl)cc23)C1` (configuration not stated), the midpoint of inhibition in [4], the IC50, lay at 34.5 µM.

For `Cc1ccc2[nH]c3c(c2c1)CCCC3CN` (configuration not stated), the IC50 in series [4] was greater than 100 µM.

Regarding `CCNC(=O)C1CCCc2c1[nH]c1ccc(Cl)cc21` (configuration not stated), the half-maximal inhibitory concentration (IC50) in series [4] is greater than 100 µM.

`NC(=O)C1CCc2c1[nH]c1ccc(Cl)cc21` (configuration not stated) registered a concentration for half-maximal inhibition (IC50) in series [4] of 0.409 µM.

`NC(=O)C1CCc2c1[nH]c1ccccc21` (configuration not stated): in series [4], the half-inhibitory concentration (IC50) came out at 2.67 µM.

In series [4], `CC(=O)N1CCc2c([nH]c3ccc(Cl)cc23)C1C(N)=O` (configuration not stated) displayed a 50% inhibitory concentration (IC50) of 79.9 µM.

For `Cc1ccc2c(c1)c1c(n2C)C(C(N)=O)CCC1` (configuration not stated), the IC50 in series [4] is greater than 100 µM.

As to `CCN(CC)C(=O)C1CCCc2c1[nH]c1ccc(Cl)cc21` (configuration not stated), the concentration for half-maximal inhibition (IC50) in series [4] was greater than 100 µM.

As for `NC(=O)C1CCc2c([nH]c3ccc(Br)cc23)C1` (configuration not stated), 2.44 µM corresponded to half-maximal inhibition in series [4] (IC50).

In the case of `NC(=O)C1CCCc2c1[nH]c1ccc(O)cc21` (configuration not stated), the half-maximal inhibitory concentration (IC50) in [4] was found to be 15 µM.

In series [4], `NC(=O)C1NCCc2c1[nH]c1ccc(Cl)cc21` (configuration not stated) returned an IC50 of 18 µM.

Take `NC(=O)C1NCCc2c1[nH]c1ccc(Br)cc21` (configuration not stated): the IC50 in [4] is greater than 100 µM.

As to `Cc1ccc2[nH]c3c(c2c1)CCCC3(C)C(N)=O` (configuration not stated), the IC50 in series [4] was 13 µM.

As usually defined, the half-life is the time needed for the level to fall by half in the phase considered. A high value points to slow decline. With `NC(=O)C1CCCc2c1[nH]c1ccc(Cl)cc21` (configuration not stated), the Stability entry in the series with Liver microsomes is on record as “Stable”. Besides, the half-life in [6] is 136 min; in series [7], greater than 60 min. Also, the IC50 at Histone deacetylase was greater than 100 µM. Also, the inhibition at 1 µM against CYP1A2 is 11%; against CYP2C9 it was -5%; against CYP3A4 it was -26%; against CYP2D6, -5%; at CYP2C19 it was 6%. For the same compound, the inhibition at 10 µM in series [3] is 0%.

Consider `NC(=O)C1CCCCc2c1[nH]c1ccc(Cl)cc21` (configuration not stated), for which, in the series with Liver microsomes, the Stability result is reported as “Stable”. Also, the half-life in series [6] is 94 min; in series [7], greater than 60 min. The half-inhibitory concentration (IC50) (in series [1]; against Histone deacetylase) was greater than 100 µM throughout. Further, the inhibition at 1 µM on CYP1A2 was 23%; against CYP2C9, 11%; at CYP3A4, -12%; against CYP2D6 it was 3%; against CYP2C19, 23%.
